Laboratory results published in patent publication US12605468B2, “Oxazine-based fluorophore compounds for nerve-specific imaging” (Oregon Health & Science University, priority 2020, dated 2026).

Experiments:
[1] = Experimental LogD measurement (1-octanol / PBS buffer partition, absorbance readout); assay type: physicochemical; conditions: pH 7.4, room temperature, read-out: Log D7.4
Description: Experimental LogD measurements. Each screening candidate was dissolved in DMSO at a concentration of 10 mM. The stock solution was sampled (2 μL) and added to a 1 mL mixture of 1-octanol and PBS buffer (equal volume). The solution was then vortexed for 30 mins at room temperature before centrifuged at 13,000 rpm for 5 minutes. The PBS buffer and 1-octanol layers were separated and measured for absorbance using a SpectraMax M5 spectrometer with a Microplate reader (Molecular Devices, Sunnyvale, CA). Sample concentration in each phase was then calculated using Beer's Law plots of absorbance versus concentration. The experimental LogD value for each screening candidates was calculated using the equation below.

nerve = conditions: Park et al. Theranostics 4, 823-833 (2014); cited from earlier work

| SMILES | logD [1] | nerve-specificity (nerve) |
| --- | --- | --- |
| c1cc2nc3ccc(=[N+]4CCC4)cc-3oc2cc1N1CCCC1 [LGW14-83, 1-(7-(pyrrolidin-1-yl)-3H-phenoxazin-3-ylidene)azetidin-1-ium] | 0.5 | – |
| CN1CCOc2cc3nc4ccc(=[N+]5CCC5)cc-4oc3cc21 [LGW14-47, 1-(4-methyl-3,4-dihydro-[1,4]oxazino[2,3-b]phenoxazin-8(2H)-ylidene)azetidin-1-ium] | 0.1 | – |
| CCN(CC)c1ccc2nc3ccc(=[N+]4CCC4)cc-3oc2c1 [LGW13-79, 1-(7-(diethylamino)-3H-phenoxazin-3-ylidene)azetidin-1-ium] | 0.8 | – |
| CCN1CCOc2cc3nc4ccc(=[N+]5CCC5)cc-4oc3cc21 [LGW14-42, 1-(4-ethyl-3,4-dihydro-[1,4]oxazino[2,3-b]phenoxazin-8(2H)-ylidene)azetidin-1-ium] | 0.5 | – |
| c1cc2nc3ccc(=[N+]4CCC4)cc-3oc2cc1N1CCC1 [LGW14-53, 1-(7-(azetidin-1-yl)-3H-phenoxazin-3-ylidene)azetidin-1-ium] | 0.3 | – |
| CC/N=c1/cc2oc3cc(NCC)c(C)cc3nc-2cc1C [Oxazine 4] | – | high nerve-specificity |
| CC/[N+](C)=c1\ccc2nc3ccc(N4CCC4)cc3oc-2c1 [LGW14-51, (E)-N-(7-(azetidin-1-yl)-3H-phenoxazin-3-ylidene)-N-methylethanaminium] | 0.5 | – |
